In patent publication US8629112B2, “Template-fixed peptidomimetics with CXCR7 modulating activity” (priority 2010, dated 2014):
Square brackets hold non-standard residues; d marks the D form. Peptide text beside a SMILES is read from it. * marks the point of attachment. 1Nal = N[C@@H](Cc1cccc2ccccc12)C(=O)O; 2Nal = N[C@@H](Cc1ccc2ccccc2c1)C(=O)O; cisHyp = O=C(O)[C@@H]1C[C@H](O)CN1; Tic = O=C(O)[C@@H]1Cc2ccccc2CN1; dTic = O=C(O)[C@H]1Cc2ccccc2CN1; dPip = O=C(O)[C@H]1CCCCN1; Orn = NCCC[C@H](N)C(=O)O; Aze = O=C(O)[C@@H]1CCN1; Dab = NCC[C@H](N)C(=O)O; Bn = c1ccc(C*)cc1

Biological target: T1, CXCR7 (Homo sapiens, UniProt P25106)
T1 construct: host or cells: CHO (PathHunter CHO-CXCR7 β-arrestin cells)
T1 sequence (P25106 whole entry): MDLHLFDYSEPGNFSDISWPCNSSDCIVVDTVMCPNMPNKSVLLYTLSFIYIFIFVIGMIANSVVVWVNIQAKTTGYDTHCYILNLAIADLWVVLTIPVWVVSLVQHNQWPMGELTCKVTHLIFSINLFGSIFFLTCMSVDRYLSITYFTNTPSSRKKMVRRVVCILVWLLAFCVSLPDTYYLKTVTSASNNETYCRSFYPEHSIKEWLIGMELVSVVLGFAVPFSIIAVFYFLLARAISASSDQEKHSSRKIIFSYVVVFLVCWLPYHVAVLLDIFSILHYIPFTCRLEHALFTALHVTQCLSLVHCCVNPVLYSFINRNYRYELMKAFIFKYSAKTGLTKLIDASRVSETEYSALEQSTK
Test: CXCR7 β-arrestin recruitment assay (PathHunter CHO-CXCR7, agonistic assay)
Assay type: cell-based
Conditions: CHO CXCR7 β-arrestin cells, agonistic assay, 90 min at 37° C., chemiluminescence; read-out: β-Arrestin EC50
Protocol: Lyophilized peptides were weighed on a Microbalance (Mettler MX5) and dissolved in DMSO to a final concentration of 10 mM unless otherwise stated. Stock solutions were kept at +4° C., and protected from light.
2.2 CXCR7 β-Arrestin Recruitment Assay
The PathHunter CHO-CXCR7 (DiscoverX) assay was performed according to the manufacturer's protocol. In brief, CHO CXCR7 β-arrestin cells were seeded at a density of 5000 cells per well in 40 μl of F12 medium in a 96-half volume well black culture plate and incubated overnight at 37° C. in a humidified atmosphere with 5% CO2. The next day, serial dilutions of PEM compounds have been prepared in DMSO and subsequently diluted in HBSS buffer containing 0.1% BSA.
For agonistic assay, 10 μl of compound solution or a solution of stromal cell-derived factor-1 (SDF-1) as positive control was added to the cells with a final DMSO concentration of 1% (v/v). The plate was incubated for 90 min at 37° C. in 5% CO2 incubator with gentle shaking (300 rpm) before addition of 40 ul of detection reagent per well. Reaction was developed 90 min at room temperature in the dark with shaking, and chemiluminescence was measured with a Topcount (Perkin Elmer) luminescence counter.

Structure (SMILES)	EC50 [nM]
N=C(N)NCCC[C@@H]1NC(=O)[C@@H]2Cc3ccccc3CN2C(=O)[C@H]2CCCN2C(=O)[C@H](CCCNC(=N)N)NC(=O)[C@H](Cc2c[nH]c3ccccc23)NC(=O)[C@@H](Cc2c[nH]cn2)NC1=O [compound 36, cyclo(-Arg-^DHis-Trp-Arg-^DPro-Tic-)] (cyclo(R[dH]WR[dP][Tic]))	144 ± 136
CC[C@H](C)[C@@H]1NC(=O)[C@@H]2Cc3ccccc3CN2C(=O)[C@H]2CCCN2C(=O)[C@H](CCCNC(=N)N)NC(=O)[C@H](Cc2c[nH]cn2)NC(=O)[C@@H](Cc2c[nH]c3ccccc23)NC1=O [compound 34, cyclo(-Ile-^DTrp-His-Arg-^DPro-Tic-)] (cyclo(HR[dP][Tic]I[dW]))	317 ± 360
N=C(N)NCCC[C@@H]1NC(=O)[C@H](Cc2ccc(O)cc2)NC(=O)[C@@H](Cc2c[nH]cn2)NC(=O)[C@H](Cc2cccc3ccccc23)NC(=O)[C@@H]2CCN2C(=O)[C@H]2CCCN2C1=O [compound 45, cyclo(-1Nal-^DHis-Tyr-Arg-^DPro-Azt-)] (cyclo([1Nal][dH]YR[dP][Aze]))	44.4 ± 25.4
CC[C@H](C)[C@@H]1NC(=O)[C@@H](CCCNC(=N)N)NC(=O)[C@H](Cc2cccc3ccccc23)NC(=O)[C@@H]2CCN2C(=O)[C@H]2CCCN2C(=O)[C@H](CCCNC(=N)N)NC1=O [compound 43, cyclo(-1Nal-^DArg-Ile-Arg-^DPro-Azt-)] (cyclo([1Nal][dR]IR[dP][Aze]))	41.2 ± 8.3
O=C1N[C@@H](Cc2ccc(O)cc2)C(=O)N2CCC[C@@H]2C(=O)N2Cc3ccccc3C[C@H]2C(=O)N[C@@H](Cc2c[nH]c3ccccc23)C(=O)N[C@H](Cc2ccccc2)C(=O)N[C@H]1Cc1c[nH]c2ccccc12 [compound 24, cyclo(-Trp-^DPhe-Trp-Tyr-^DPro-Tic-)] (cyclo([Tic]W[dF]WY[dP]))	94.5 ± 54.1
N=C(N)NCCC[C@@H]1NC(=O)[C@H](Cc2c[nH]c3ccccc23)NC(=O)[C@@H](Cc2ccccc2)NC(=O)[C@H](Cc2c[nH]c3ccccc23)NC(=O)[C@@H]2CCCN2C(=O)[C@H]2Cc3ccccc3CN2C1=O [Ex. 40, cyclo(-Trp-^DPhe-Trp-Arg-^DTic-Pro-)] (cyclo(PW[dF]WR[dTic]))	83.6 ± 22.7
N=C(N)NCCC[C@@H]1NC(=O)[C@H](Cc2c[nH]c3ccccc23)NC(=O)[C@@H](Cc2ccccc2)NC(=O)[C@H](Cc2c[nH]cn2)NC(=O)[C@@H]2Cc3ccccc3CN2C(=O)[C@H]2CCCN2C1=O [compound 3, cyclo(-His-^DPhe-Trp-Arg-^DPro-Tic-)] (cyclo(H[dF]WR[dP][Tic]))	32.1 ± 3.9
N=C(N)NCCC[C@@H]1NC(=O)[C@H](Cc2c[nH]c3ccccc23)NC(=O)[C@@H](CCCNC(=N)N)NC(=O)[C@H](Cc2c[nH]c3ccccc23)NC(=O)[C@@H]2Cc3ccccc3CN2C(=O)[C@H]2CCCN2C1=O [compound 13, cyclo(-Trp-^DArg-Trp-Arg-^DPro-Tic-)] (cyclo(R[dP][Tic]W[dR]W))	128 ± 32.5
NCC[C@@H]1NC(=O)[C@H](Cc2c[nH]c3ccccc23)NC(=O)[C@@H](Cc2ccccc2)NC(=O)[C@H](Cc2c[nH]c3ccccc23)NC(=O)[C@@H]2Cc3ccccc3CN2C(=O)[C@H]2CCCN2C1=O [compound 22, cyclo(-Trp-^DPhe-Trp-Dab-^DPro-Tic-)] (cyclo([Dab][dP][Tic]W[dF]W))	12.6 ± 1.6
C[C@@H]1NC(=O)[C@@H]2Cc3ccccc3CN2C(=O)[C@H]2CCCN2C(=O)[C@H](CCCNC(=N)N)NC(=O)[C@H](Cc2c[nH]c3ccccc23)NC(=O)[C@@H](Cc2ccccc2)NC1=O [Ex. 1, cyclo(-Ala-^DPhe-Trp-Arg-^DPro-Tic-)] (cyclo(A[dF]WR[dP][Tic]))	163 ± 40.9
N=C(N)NCCC[C@@H]1NC(=O)[C@H](Cc2c[nH]c3ccccc23)NC(=O)[C@@H](CCCNC(=N)N)NC(=O)[C@H](Cc2cccc3ccccc23)NC(=O)[C@@H]2Cc3ccccc3CN2C(=O)[C@H]2CCCN2C1=O [compound 28, cyclo(-1Nal-^DArg-Trp-Arg-^DPro-Tic-)] (cyclo([1Nal][dR]WR[dP][Tic]))	280 ± 115
CC[C@H](C)[C@@H]1NC(=O)[C@@H](CCCNC(=N)N)NC(=O)[C@H]([C@@H](C)CC)NC(=O)[C@@H]2Cc3ccccc3CN2C(=O)[C@H]2CCCN2C(=O)[C@H](CCCNC(=N)N)NC1=O [compound 33, cyclo(-Ile-^DArg-Ile-Arg-^DPro-Tic-)] (cyclo(IR[dP][Tic]I[dR]))	34.3 ± 3.6
N=C(N)NCCC[C@@H]1NC(=O)[C@H](Cc2c[nH]c3ccccc23)NC(=O)[C@@H](Cc2ccccc2)NC(=O)[C@H](Cc2c[nH]c3ccccc23)NC(=O)[C@@H]2C[C@H](OCc3ccccc3)CN2C(=O)[C@H]2CCCN2C1=O [Ex. 27, cyclo(-Trp-^DPhe-Trp-Arg-^DPro-(4S)-Hyp(Bn)-)] (cyclo(R[dP][cisHyp](Bn)W[dF]W))	1.7 ± 1.1
NCCC[C@@H]1NC(=O)[C@H](Cc2c[nH]c3ccccc23)NC(=O)[C@@H](Cc2ccccc2)NC(=O)[C@H](Cc2c[nH]c3ccccc23)NC(=O)[C@@H]2Cc3ccccc3CN2C(=O)[C@H]2CCCN2C1=O [compound 21, cyclo(-Trp-^DPhe-Trp-Orn-^DPro-Tic-)] (cyclo([Orn][dP][Tic]W[dF]W))	12.1
N=C(N)NCCC[C@@H]1NC(=O)[C@H](Cc2c[nH]c3ccccc23)NC(=O)[C@@H](Cc2c[nH]cn2)NC(=O)[C@H](Cc2c[nH]c3ccccc23)NC(=O)[C@@H]2Cc3ccccc3CN2C(=O)[C@H]2CCCN2C1=O [compound 11, cyclo(-Trp-^DHis-Trp-Arg-^DPro-Tic-)] (cyclo(R[dP][Tic]W[dH]W))	204 ± 8.1
O=C1N[C@@H](Cc2c[nH]cn2)C(=O)N2CCC[C@@H]2C(=O)N2Cc3ccccc3C[C@H]2C(=O)N[C@@H](Cc2c[nH]c3ccccc23)C(=O)N[C@H](Cc2ccccc2)C(=O)N[C@H]1Cc1c[nH]c2ccccc12 [Ex. 23, cyclo(-Trp-^DPhe-Trp-His-^DPro-Tic-)] (cyclo(H[dP][Tic]W[dF]W))	18.3 ± 17.6
N=C(N)NCCC[C@@H]1NC(=O)[C@H](Cc2c[nH]c3ccccc23)NC(=O)[C@@H](Cc2ccccc2)NC(=O)[C@H](Cc2ccc3ccccc3c2)NC(=O)[C@@H]2Cc3ccccc3CN2C(=O)[C@H]2CCCN2C1=O [compound 8, cyclo(-2Nal-^DPhe-Trp-Arg-^DPro-Tic-)] (cyclo([2Nal][dF]WR[dP][Tic]))	8.9 ± 5.8
N=C(N)NCCC[C@H]1NC(=O)[C@H](Cc2c[nH]c3ccccc23)NC(=O)[C@@H]2Cc3ccccc3CN2C(=O)[C@H]2CCCN2C(=O)[C@H](Cc2c[nH]c3ccccc23)NC(=O)[C@H](Cc2c[nH]cn2)NC1=O [compound 38, cyclo(-Trp-^DArg-His-Trp-^DPro-Tic-)] (cyclo(HW[dP][Tic]W[dR]))	217 ± 12.5
CC[C@H](C)[C@@H]1NC(=O)[C@H](Cc2c[nH]c3ccccc23)NC(=O)[C@@H](CCCNC(=N)N)NC(=O)[C@H](Cc2c[nH]c3ccccc23)NC(=O)[C@@H]2CCN2C(=O)[C@H]2CCCN2C1=O [compound 46, cyclo(-Trp-^DArg-Trp-Ile-^DPro-Azt-)] (cyclo([Aze]W[dR]WI[dP]))	208 ± 50.2
N=C(N)NCCC[C@@H]1NC(=O)[C@H](Cc2ccccc2)NC(=O)[C@@H](Cc2ccccc2)NC(=O)[C@H](Cc2c[nH]c3ccccc23)NC(=O)[C@@H]2Cc3ccccc3CN2C(=O)[C@H]2CCCN2C1=O [compound 15, cyclo(-Trp-^DPhe-Phe-Arg-^DPro-Tic-)] (cyclo(FR[dP][Tic]W[dF]))	75.7 ± 41.5
N=C(N)NCCC[C@@H]1NC(=O)[C@H](Cc2c[nH]c3ccccc23)NC(=O)[C@@H](Cc2ccccc2)NC(=O)[C@H](Cc2c[nH]c3ccccc23)NC(=O)[C@@H]2CCCN2C(=O)[C@H]2CCCCN2C1=O [compound 41, cyclo(-Trp-^DPhe-Trp-Arg-^DPip-Pro-)] (cyclo(PW[dF]WR[dPip]))	78.7 ± 0.9
CC[C@H](C)[C@@H]1NC(=O)[C@@H](Cc2c[nH]cn2)NC(=O)[C@H](Cc2c[nH]c3ccccc23)NC(=O)[C@@H]2CCN2C(=O)[C@H]2CCCN2C(=O)[C@H](CCCNC(=N)N)NC1=O [compound 47, cyclo(-Trp-^DHis-Ile-Arg-^DPro-Azt-)] (cyclo([Aze]W[dH]IR[dP]))	344.5 ± 0.6
N=C(N)NCCC[C@@H]1NC(=O)[C@H](Cc2c[nH]cn2)NC(=O)[C@@H](CCCNC(=N)N)NC(=O)[C@H](Cc2c[nH]c3ccccc23)NC(=O)[C@@H]2Cc3ccccc3CN2C(=O)[C@H]2CCCN2C1=O [compound 37, cyclo(-Trp-^DArg-His-Arg-^DPro-Tic-)] (cyclo(HR[dP][Tic]W[dR]))	348 ± 55.6
